# From patent US20090005437A1, “Alpha-Ketoglutarates and Their Use as Therapeutic Agents” (priority 2004, published 2009)
# What was measured:
# [1] = tested on: cells under hypoxic conditions; test: Cell death of cells grown under hypoxic conditions (0.5% oxygen)
# [2] = tested on: HIF1α; test: HIF1α levels in HEK293 cells in which HIF1α was induced by DMS (western blot); format: cell-based, human; conditions: HEK293, DMS 24 hours, then ester 3 hours
# [3] = tested on: HIF1α; test: HIF1α induction in SDH-inhibited cells transfected with Di3 shRNA (western blot); format: cell-based; conditions: 24 hour treatment
# [4] = tested on: PHD; test: PHD activity in cells co-expressing GFP-ODD fusion protein and HA-pVHL (GFP fluorescence, western blot); format: cell-based, human
# [5] = tested on: PHD (HIFα prolyl hydroxylase); test: In vitro PHD activity (hydroxylation of in vitro-translated HA-ODDD by cell extracts, gel shift on SDS-PAGE); format: biochemical, human
# [6] = tested on: HIF-1α; test: HIF-1α levels in cells incubated with DMS under normoxic conditions (western blot); format: cell-based; conditions: 20 mM, 48 hours
# From the text: Protein analyses. […] Following SDS-PAGE, proteins were blotted onto nitrocellulose and analyzed with the following antibodies: anti-HIF-1α (BD Biosciences), anti-HA (Roche), anti-GFP (BD Biosciences) or anti-Actin (Sigma).
# [7] = tested on: HEK293 cells; test: Measurement of intracellular α-ketoglutarate (glutamate dehydrogenase assay); format: cell-based, human; conditions: 1 mM, 5 hours
smiles,measurement,setting,value
"CCCCCCCCOC(=O)C(=O)CCC(=O)O [octyl-α-ketoglutarate, 2-Oxo-pentanedioic acid 1-octyl ester]",Cell death under hypoxic conditions,[1],significant cell death
same,HIF1α protein levels after DMS induction,[2],reversed DMS-induction of HIF1α completely
same,HIF1α induction observed with Di3 transfection,[3],reversed
same,GFP fluorescence in DMS-treated cells,[4],reduced GFP fluorescence
"O=C(O)CCC(=O)O [succinate, succinic acid]",PHD activity (appearance of non-hydroxylated HA-ODD),"[5]; HeLa cell extracts, succinate held constant at 1 mM",inhibition of PHD activity
same,"PHD activity in vitro (production of hydroxylated HA-ODDD, mobility on SDS-PAGE)","[5]; cell extracts with α-ketoglutarate, Fe2+, ascorbate, DFO 5 mM, succinate 0.1-5.0 mM",decrease in the production of hydroxylated HA-ODDD
same,IC50,"[5]; read-out: IC50 for inhibition of PHD activity (HA-ODDD hydroxylation), cell extracts with α-ketoglutarate, Fe2+, ascorbate",500 µM
[Cl-].[Cl-].[Co+2] [CoCl2],GFP-ODD levels (western blot),[4],increase in GFP-ODD levels
"COC(=O)CCC(=O)OC [DMS, dimethyl ester succinic acid]",HIF-1α levels (western blot),[6],elevated levels of HIF-1α
same,GFP fluorescence,"[4]; 48 hours after treatment with DMS, 10% oxygen",increase in GFP fluorescence
same,Level of GFP-ODD (western blot),"[4]; DMS alone, 48 hours",rose
"O=C(O)CCC(=O)C(=O)OCc1cccc(C(F)(F)F)c1 [TFMB-α-ketoglutarate, 2-Oxopentanedioic acid 1-(3-trifluoromethyl-benzyl)ester]",HIF1α protein levels after DMS induction,[2],substantially reduce the levels of HIF1α protein
same,HIF1α induction observed with Di3 transfection,[3],reversed
same,GFP fluorescence in DMS-treated cells,[4],reduced GFP fluorescence
"O=C(O)CCC(=O)C(=O)O [free α-ketoglutaric acid, 2-Oxo-pentanedioic acid]",Change of intracellular α-ketoglutarate above basal levels,[7],no increase
